Test results from patent publication US10781211B2, “Spirocycle compounds and methods of making and using same” (Lundbeck La Jolla Research Center, Inc., priority 2016, dated 2020).

How the values were obtained:
Assay type in all cases: in vivo
Settings in all cases: 5 mg/kg oral gavage
FAAH = FAAH (Mus musculus (Mouse), UniProt O08914); assay: Mouse brain proteomes from inhibitor treated mice (oral gavage, sacrifice 4 h after administration, ABPP analysis), FAAH
In short: (§1)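 Compounds were given by oral gavage to wild-type C57Bl/6J mice in a vehicle such as PEG400/Ethanol/PBS (7/2/1). Animals were sacrificed 4 h after dosing, and brain proteomes were prepared and analyzed by established ABPP methods. Values are % inhibition at 5 mg/kg.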

MAGL = MAGL (Mus musculus (Mouse), UniProt O35678); assay: Mouse brain proteomes from inhibitor treated mice (oral gavage, sacrifice 4 h after administration, ABPP analysis)
In short: as §1

ABHD6 = ABHD6 (Mus musculus (Mouse), UniProt Q8R2Y0); assay: Mouse brain proteomes from inhibitor treated mice (oral gavage, sacrifice 4 h after administration, ABPP analysis), ABHD6
In short: as §1

ABHD6, sequence (Q8R2Y0 whole entry): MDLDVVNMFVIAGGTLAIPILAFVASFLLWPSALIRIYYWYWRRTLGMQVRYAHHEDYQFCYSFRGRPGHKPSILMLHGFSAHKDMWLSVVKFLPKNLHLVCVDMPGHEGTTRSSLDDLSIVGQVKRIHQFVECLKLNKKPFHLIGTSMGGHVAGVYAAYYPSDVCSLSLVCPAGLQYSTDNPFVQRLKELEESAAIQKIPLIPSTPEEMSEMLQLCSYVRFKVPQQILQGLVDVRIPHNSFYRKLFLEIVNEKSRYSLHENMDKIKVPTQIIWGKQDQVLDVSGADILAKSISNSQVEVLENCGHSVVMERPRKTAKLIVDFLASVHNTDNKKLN
FAAH, sequence (O08914 whole entry): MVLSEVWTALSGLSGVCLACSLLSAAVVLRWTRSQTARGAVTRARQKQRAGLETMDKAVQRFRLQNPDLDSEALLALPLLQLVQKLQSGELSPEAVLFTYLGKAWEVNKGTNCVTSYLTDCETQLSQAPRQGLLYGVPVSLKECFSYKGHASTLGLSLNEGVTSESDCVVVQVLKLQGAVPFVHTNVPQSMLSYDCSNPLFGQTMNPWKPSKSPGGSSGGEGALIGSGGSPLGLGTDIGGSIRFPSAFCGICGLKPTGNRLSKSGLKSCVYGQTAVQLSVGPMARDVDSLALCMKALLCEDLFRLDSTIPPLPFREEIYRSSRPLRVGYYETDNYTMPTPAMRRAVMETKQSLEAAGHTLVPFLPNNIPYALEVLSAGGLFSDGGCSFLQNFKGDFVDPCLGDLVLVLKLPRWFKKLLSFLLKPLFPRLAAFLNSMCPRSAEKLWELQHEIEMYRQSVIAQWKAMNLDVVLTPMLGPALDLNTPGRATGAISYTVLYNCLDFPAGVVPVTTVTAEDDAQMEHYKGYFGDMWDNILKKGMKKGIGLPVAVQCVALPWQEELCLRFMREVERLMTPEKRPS
MAGL, sequence (O35678 whole entry): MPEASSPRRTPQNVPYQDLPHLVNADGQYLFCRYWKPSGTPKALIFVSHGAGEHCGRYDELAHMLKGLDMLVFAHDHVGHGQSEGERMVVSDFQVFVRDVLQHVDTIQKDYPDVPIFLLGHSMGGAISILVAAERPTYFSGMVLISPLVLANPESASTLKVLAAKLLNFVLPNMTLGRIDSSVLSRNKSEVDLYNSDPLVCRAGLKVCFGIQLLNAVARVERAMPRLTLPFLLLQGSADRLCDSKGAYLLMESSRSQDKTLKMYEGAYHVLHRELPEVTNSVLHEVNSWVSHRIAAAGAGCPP

Cc1cc(CN2CCCC23CCN(C(=O)OC(C(F)(F)F)C(F)(F)F)CC3)ccc1C(F)(F)F [Example 177, 1,1,1,3,3,3-Hexafluoropropan-2-yl 1-(3-methyl-4-(trifluoromethyl)benzyl)-1,8-diazaspiro[4.5]decane-8-carboxylate]
FAAH % Inh 5 mg/kg (mouse) (FAAH): # (# is < 25%) | MAGL % Inh 5 mg/kg (mouse) (MAGL): ### (### is ≥ 75%) | ABHD6 % Inh 5 mg/kg (mouse) (ABHD6): # (# is < 25%)

O=C(OC(C(F)(F)F)C(F)(F)F)N1CCC2(CCN(Cc3ccc(Cl)cc3N3CCCCC3)C2)CC1 [Example 24, 1,1,1,3,3,3-Hexafluoropropan-2-yl 2-(4-chloro-2-(piperidin-1-yl)benzyl)-2,8-diazaspiro[4.5]decane-8-carboxylate]
FAAH % Inh 5 mg/kg (mouse) (FAAH): # (# is < 25%) | MAGL % Inh 5 mg/kg (mouse) (MAGL): ### (### is ≥ 75%) | ABHD6 % Inh 5 mg/kg (mouse) (ABHD6): # (# is < 25%)

CN1CCC(Oc2cc(CN3CCCC34CCN(C(=O)OC(C(F)(F)F)C(F)(F)F)CC4)cc(C(F)(F)F)c2)CC1 [Example 166, 1,1,1,3,3,3-Hexafluoropropan-2-yl 1-(3-(1-methylpiperidin-4-yloxy)-5-(trifluoromethyl)benzyl)-1,8-diazaspiro[4.5]decane-8-carboxylate]
FAAH % Inh 5 mg/kg (mouse) (FAAH): # (# is < 25%) | MAGL % Inh 5 mg/kg (mouse) (MAGL): # (# is < 25%) | ABHD6 % Inh 5 mg/kg (mouse) (ABHD6): # (# is < 25%)

O=C(OC(C(F)(F)F)C(F)(F)F)N1CCC2(CCCN2Cc2ccc(C(F)(F)F)cc2N2CCC(F)CC2)CC1 [Example 91, 1,1,1,3,3,3-Hexafluoropropan-2-yl 1-(2-(4-fluoropiperidin-1-yl)-4-(trifluoromethyl)benzyl)-1,8-diazaspiro[4.5]decane-8-carboxylate]
FAAH % Inh 5 mg/kg (mouse) (FAAH): # (# is < 25%) | MAGL % Inh 5 mg/kg (mouse) (MAGL): ### (### is ≥ 75%) | ABHD6 % Inh 5 mg/kg (mouse) (ABHD6): # (# is < 25%)

O=C(OC(C(F)(F)F)C(F)(F)F)N1CCC2(CCCN2Cc2ccc(Cl)cc2N2CC3COCC3C2)CC1 (stereo not drawn) [Example 108, 1,1,1,3,3,3-Hexafluoropropan-2-yl 1-(4-chloro-2-(tetrahydro-1H-furo[3,4-c]pyrrol-5(3H)-yl)benzyl)-1,8-diazaspiro[4.5]decane-8-carboxylate]
FAAH % Inh 5 mg/kg (mouse) (FAAH): # (# is < 25%) | MAGL % Inh 5 mg/kg (mouse) (MAGL): ### (### is ≥ 75%) | ABHD6 % Inh 5 mg/kg (mouse) (ABHD6): # (# is < 25%)

O=C(O)C1CCN(c2cc(Cl)ccc2CN2CCCC23CCN(C(=O)OC(C(F)(F)F)C(F)(F)F)CC3)CC1 [Example 120, 1-(5-Chloro-2-((8-(((1,1,1,3,3,3-hexafluoropropan-2-yl)oxy)carbonyl)-1,8-diazaspiro[4.5]decan-1-yl)methyl)phenyl)piperidine-4-carboxylic acid]
FAAH % Inh 5 mg/kg (mouse) (FAAH): # (# is < 25%) | MAGL % Inh 5 mg/kg (mouse) (MAGL): ### (### is ≥ 75%) | ABHD6 % Inh 5 mg/kg (mouse) (ABHD6): # (# is < 25%)

CS(=O)(=O)NC1CCN(c2cc(Cl)ccc2CN2CCCC23CCN(C(=O)OC(C(F)(F)F)C(F)(F)F)CC3)CC1 [Example 105, 1,1,1,3,3,3-Hexafluoropropan-2-yl 1-(4-chloro-2-(4-(methylsulfonamido)piperidin-1-yl)benzyl)-1,8-diazaspiro[4.5]decane-8-carboxylate]
FAAH % Inh 5 mg/kg (mouse) (FAAH): # (# is < 25%) | MAGL % Inh 5 mg/kg (mouse) (MAGL): # (# is < 25%) | ABHD6 % Inh 5 mg/kg (mouse) (ABHD6): # (# is < 25%)

O=C(O)[C@@H]1CCCCN1c1cc(CN2CCCC23CCN(C(=O)OC(C(F)(F)F)C(F)(F)F)CC3)cc(C(F)(F)F)c1 [Example 196, (S)-1-(3-((8-(((1,1,1,3,3,3-Hexafluoropropan-2-yl)oxy)carbonyl)-1,8-diazaspiro[4.5]decan-1-yl)methyl)-5-(trifluoromethyl)phenyl)piperidine-2-carboxylic acid]
FAAH % Inh 5 mg/kg (mouse) (FAAH): # (# is < 25%) | MAGL % Inh 5 mg/kg (mouse) (MAGL): ### (### is ≥ 75%) | ABHD6 % Inh 5 mg/kg (mouse) (ABHD6): # (# is < 25%)

CCOc1cc(CN2CCCC23CCN(C(=O)OC(C(F)(F)F)C(F)(F)F)CC3)ccc1Cl [Example 32, 1,1,1,3,3,3-Hexafluoropropan-2-yl 1-(4-chloro-3-ethoxybenzyl)-1,8-diazaspiro[4.5]decane-8-carboxylate]
FAAH % Inh 5 mg/kg (mouse) (FAAH): # (# is < 25%) | MAGL % Inh 5 mg/kg (mouse) (MAGL): ### (### is ≥ 75%) | ABHD6 % Inh 5 mg/kg (mouse) (ABHD6): # (# is < 25%)

O=C(OC(C(F)(F)F)C(F)(F)F)N1CCC2(CCCN2Cc2ccc(Cl)cc2N2CCOCC2)CC1 [Example 77, 1,1,1,3,3,3-Hexafluoropropan-2-yl 1-(4-chloro-2-morpholinobenzyl)-1,8-diazaspiro[4.5]decane-8-carboxylate]
FAAH % Inh 5 mg/kg (mouse) (FAAH): # (# is < 25%) | MAGL % Inh 5 mg/kg (mouse) (MAGL): ### (### is ≥ 75%) | ABHD6 % Inh 5 mg/kg (mouse) (ABHD6): # (# is < 25%)

O=C(OC(C(F)(F)F)C(F)(F)F)N1CCC2(CCCN2Cc2ccc(Cl)cc2N2CCCC2)CC1 [Example 76, 1,1,1,3,3,3-Hexafluoropropan-2-yl 1-(4-chloro-2-(pyrrolidin-1-yl)benzyl)-1,8-diazaspiro[4.5]decane-8-carboxylate]
FAAH % Inh 5 mg/kg (mouse) (FAAH): # (# is < 25%) | MAGL % Inh 5 mg/kg (mouse) (MAGL): ### (### is ≥ 75%) | ABHD6 % Inh 5 mg/kg (mouse) (ABHD6): # (# is < 25%)

Cc1cc(CN2CCCC23CCN(C(=O)OC(C(F)(F)F)C(F)(F)F)CC3)ccc1Cl [Example 124, 1,1,1,3,3,3-Hexafluoropropan-2-yl 1-(4-chloro-3-methylbenzyl)-1,8-diazaspiro[4.5]decane-8-carboxylate]
FAAH % Inh 5 mg/kg (mouse) (FAAH): # (# is < 25%) | MAGL % Inh 5 mg/kg (mouse) (MAGL): ### (### is ≥ 75%) | ABHD6 % Inh 5 mg/kg (mouse) (ABHD6): # (# is < 25%)

COc1cc(Cl)ccc1CN1CCCC12CCN(C(=O)OC(C(F)(F)F)C(F)(F)F)CC2 [Example 9, 1,1,1,3,3,3-Hexafluoropropan-2-yl 1-(4-chloro-2-methoxybenzyl)-1,8-diazaspiro[4.5]decane-8-carboxylate]
FAAH % Inh 5 mg/kg (mouse) (FAAH): # (# is < 25%) | MAGL % Inh 5 mg/kg (mouse) (MAGL): ### (### is ≥ 75%) | ABHD6 % Inh 5 mg/kg (mouse) (ABHD6): # (# is < 25%)

CC1(C(=O)O)CCCN(c2cc(CN3CCCC34CCN(C(=O)OC(C(F)(F)F)C(F)(F)F)CC4)cc(C(F)(F)F)c2)C1 (stereo not drawn) [Example 221]
FAAH % Inh 5 mg/kg (mouse) (FAAH): # (# is < 25%) | MAGL % Inh 5 mg/kg (mouse) (MAGL): ### (### is ≥ 75%) | ABHD6 % Inh 5 mg/kg (mouse) (ABHD6): # (# is < 25%)

O=C(OC(C(F)(F)F)C(F)(F)F)N1CCC2(CCCN2Cc2ccc(Cl)cc2OCCF)CC1 [Example 30, 1,1,1,3,3,3-Hexafluoropropan-2-yl 1-(4-chloro-2-(2-fluoroethoxy)benzyl)-1,8-diazaspiro[4.5]decane-8-carboxylate]
FAAH % Inh 5 mg/kg (mouse) (FAAH): # (# is < 25%) | MAGL % Inh 5 mg/kg (mouse) (MAGL): ### (### is ≥ 75%) | ABHD6 % Inh 5 mg/kg (mouse) (ABHD6): # (# is < 25%)

O=C(O)[C@H]1CCCN(c2cc(C(F)(F)F)ccc2CN2CCCC23CCN(C(=O)OC(C(F)(F)F)C(F)(F)F)CC3)C1 [Example 217]
FAAH % Inh 5 mg/kg (mouse) (FAAH): # (# is < 25%) | MAGL % Inh 5 mg/kg (mouse) (MAGL): ### (### is ≥ 75%) | ABHD6 % Inh 5 mg/kg (mouse) (ABHD6): # (# is < 25%)

O=C(OC(C(F)(F)F)C(F)(F)F)N1CCC2(CCCN2Cc2ccc(C(F)(F)F)c(N3CCCC3)c2)CC1 [Example 134, 1,1,1,3,3,3-Hexafluoropropan-2-yl 1-(3-(pyrrolidin-1-yl)-4-(trifluoromethyl)benzyl)-1,8-diazaspiro[4.5]decane-8-carboxylate]
FAAH % Inh 5 mg/kg (mouse) (FAAH): # (# is < 25%) | MAGL % Inh 5 mg/kg (mouse) (MAGL): ### (### is ≥ 75%) | ABHD6 % Inh 5 mg/kg (mouse) (ABHD6): # (# is < 25%)

O=C(OC(C(F)(F)F)C(F)(F)F)N1CCC2(CCCN2Cc2cc(N3CCOCC3)cc(C(F)(F)F)c2)CC1 [Example 35, 1,1,1,3,3,3-Hexafluoropropan-2-yl 1-(3-morpholino-5-(trifluoromethyl)benzyl)-1,8-diazaspiro[4.5]decane-8-carboxylate]
FAAH % Inh 5 mg/kg (mouse) (FAAH): # (# is < 25%) | MAGL % Inh 5 mg/kg (mouse) (MAGL): ### (### is ≥ 75%) | ABHD6 % Inh 5 mg/kg (mouse) (ABHD6): # (# is < 25%)

O=C(OC(C(F)(F)F)C(F)(F)F)N1CCC2(CCCN2Cc2cc(OC(F)(F)F)cc(N3CCOCC3)c2)CC1 [Example 37, 1,1,1,3,3,3-Hexafluoropropan-2-yl 1-(3-morpholino-5-(trifluoromethoxy)benzyl)-1,8-diazaspiro[4.5]decane-8-carboxylate]
FAAH % Inh 5 mg/kg (mouse) (FAAH): # (# is < 25%) | MAGL % Inh 5 mg/kg (mouse) (MAGL): ### (### is ≥ 75%) | ABHD6 % Inh 5 mg/kg (mouse) (ABHD6): # (# is < 25%)

CCOc1ccc(CN2CCCC23CCN(C(=O)OC(C(F)(F)F)C(F)(F)F)CC3)cc1 [Example 4, 1,1,1,3,3,3-Hexafluoropropan-2-yl 1-(4-ethoxybenzyl)-1,8-diazaspiro[4.5]decane-8-carboxylate]
FAAH % Inh 5 mg/kg (mouse) (FAAH): # (# is < 25%) | MAGL % Inh 5 mg/kg (mouse) (MAGL): ### (### is ≥ 75%) | ABHD6 % Inh 5 mg/kg (mouse) (ABHD6): # (# is < 25%)

O=C(OC(C(F)(F)F)C(F)(F)F)N1CCC2(CCCN2Cc2cc(N3CC4COCC4C3)cc(C(F)(F)F)c2)CC1 (stereo not drawn) [Example 46, 1,1,1,3,3,3-Hexafluoropropan-2-yl 1-(3-(tetrahydro-1H-furo[3,4-c]pyrrol-5(3H)-yl)-5-(trifluoromethyl)benzyl)-1,8-diazaspiro[4.5]decane-8-carboxylate]
FAAH % Inh 5 mg/kg (mouse) (FAAH): # (# is < 25%) | MAGL % Inh 5 mg/kg (mouse) (MAGL): ### (### is ≥ 75%) | ABHD6 % Inh 5 mg/kg (mouse) (ABHD6): # (# is < 25%)

O=C(O)[C@@H]1CCCN(c2cc(C(F)(F)F)ccc2CN2CCCC23CCN(C(=O)OC(C(F)(F)F)C(F)(F)F)CC3)C1 [Example 214]
FAAH % Inh 5 mg/kg (mouse) (FAAH): # (# is < 25%) | MAGL % Inh 5 mg/kg (mouse) (MAGL): ### (### is ≥ 75%) | ABHD6 % Inh 5 mg/kg (mouse) (ABHD6): # (# is < 25%)

O=C(OC(C(F)(F)F)C(F)(F)F)N1CCC2(CCCN2Cc2cccc(N3CC4CCC(C3)O4)c2Cl)CC1 [Example 82, 1,1,1,3,3,3-Hexafluoropropan-2-yl 1-(3-(8-oxa-3-azabicyclo[3.2.1]octan-3-yl)-2-chlorobenzyl)-1,8-diazaspiro[4.5]decane-8-carboxylate]
FAAH % Inh 5 mg/kg (mouse) (FAAH): # (# is < 25%) | MAGL % Inh 5 mg/kg (mouse) (MAGL): ### (### is ≥ 75%) | ABHD6 % Inh 5 mg/kg (mouse) (ABHD6): # (# is < 25%)
